# Where two headings read alike, the source gives them in different places.
# How the values were obtained:
# [1] = Solubility of sulphur in refluxing acetonitrile-water-sulphuric acid; assay type: physicochemical; conditions: refluxing 50% acetonitrile, 45% water, 5% sulphuric acid
# Description: c. Sulphur dissolved in refluxing 50% acetonitrile, 45% water, 5% sulphuric acid to the extent of about 0.05 gms/100 ml.
# [2] = Solubilities of salts in acidified [2% v/v H2SO4] acetonitrile-water mixtures at 25°C (Table 3); conditions: 2% v/v H2SO4, water
# [3] = acidified acetonitrile-water (10.8% ch3cn)
# Description: Solubilities of salts in acidified [2% v/v H2 SO4 ] acetonitrile-water mixtures at 25°C.
# [4] = Hydrolysis/decomposition of nitriles in acidified solutions; assay type: physicochemical
# [5] = Oxidation of stirred cuprous sulphate solutions in acidified acetonitrile-water mixtures under oxygen (Table 2); assay type: physicochemical; conditions: 1.5% wt Cu^+, O2 1 atm
# Text: Effect of Nitrile and Acid Concentration.
# [6] = 2 molar sulphuric acid, 100°C; reported; cited from earlier work
compound,measurement,setting,value
"S1SSSSSSS1 [Sulphur, sulphur]",Sulphur dissolved,[1],about 0.05 gms/100 ml
O.O.O.O.O.O.O.O=S(=O)([O-])[O-].[Ni+2] [NiSO4.7H2 O],Solubility (MX),[2]; 16.6% v/v CH3CN,231 mg/mL
O.O.O.O.O.O.O.O.O.O=S(=O)([O-])[O-].O=S(=O)([O-])[O-].O=S(=O)([O-])[O-].[Fe+3].[Fe+3] [Fe2 (SO4).9H2 O],Solubility (MX),[3],325 mg/mL
"CC#N [Acetonitrile, acetonitrile]",hydrolysed to acetic acid and ammonium acetate within,"[4]; 2 molar sulphuric acid, sealed tube, 100°C",≤ 24 h
same,loss of acetonitrile on heating,"[4]; acetonitrile, water, cuprous sulphate and 1N sulphuric acid, sealed tubes, 50°C, 2 months",had not lost detectable amounts
"O=S(=O)([O-])[O-].[Cu+].[Cu+] [Cu2 SO4, cuprous sulphate]",Time for 30% of theoretical O2 uptake,"[5]; 10% vol CH3CN, 5% vol H2SO4, 25°C",95 min
same,Time for 30% of theoretical O2 uptake,"[5]; 30% vol CH3CN, 2.5% vol H2SO4, 25°C",330 min
same,Time for 30% of theoretical O2 uptake,"[5]; 30% vol CH3CN, 5% vol H2SO4, 25°C",300 min
same,Time for 30% of theoretical O2 uptake,"[5]; 30% vol CH3CN, 10% vol H2SO4, 25°C",375 min
same,Time for 30% of theoretical O2 uptake,"[5]; 50% vol CH3CN, 5% vol H2SO4, 25°C",340 min
O=S(=O)([O-])[O-].[Cd+2] [Cd SO4.8H2 O],Solubility (MX),[2]; 15% v/v CH3CN,492 mg/mL
N#CCCO [2-hydroxycyanoethane],rate of hydrolysis compared with acetonitrile,[6],comparable rate
N#CCO [cyanohydrin of formaldehyde],decomposition in the nitrile suitability tests,"[4]; water and suitable acids, cuprous salts",decomposed rapidly

# Source: patent US3937657A, “Electrowinning of copper” (Anumin Pty. Limited, priority 1971, dated 1976)
